We go through 30 compounds from PubChem BioAssay AID743059 (The Scripps Research Institute Molecular Screening Center, 2013).

The source made the active and inactive calls.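 How the source made its calls: active means EC50 at or below 10 µM; inactive means EC50 above 10 µM.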 Bounds are passed on as bounds.

The assay deals with Nuclear hormone receptor DAF-12 (Heterodera glycines). In words: H. glycines DAF-12 receptor agonist potency, dose response, cell-based, luminescence, HEK293 (AID 743059). The following applies: HEK293 hgDAF-12 reporter, luciferase luminescence.
Turning to `CCOc1ccc2nc(NC(=O)Nc3cccs3)sc2c1`, the EC50 is > 67.5 µM (inactive).
Regarding `CCSCC(C)(C)n1[nH]c2ccccc2c1=O`, the EC50 was > 67.6 µM (inactive).
With `Fc1ccc(-n2nnc(-c3cccnc3Cl)n2)cc1`, the EC50 was > 67.5 µM (inactive).
Consider `Cc1ccc(-c2csc(NC(=O)/C=C/c3ccco3)c2C(=O)O)cc1`, for which the EC50 was > 67.6 µM (inactive).
Regarding `Cc1ccc(N/N=C(\C#N)C(=N)N2CCCCCC2)cc1`, the EC50 is > 67.5 µM (inactive).
Regarding `CN1C(=O)/C(=C/C=C2\SCCN2C)N(C)C1=S`, the EC50 is > 67.6 µM (inactive).
Under `Cc1ccc(S(=O)(=O)/N=C(/NC(=S)Nc2ccccc2)c2ccccc2)cc1` stands > 67.5 µM (inactive); under `Oc1ccccc1-c1cc(-c2ccc3c(c2)OCCO3)n[nH]1`, > 67.6 µM (inactive).
`CCc1sc(C(=O)Nc2ncccc2O)cc1C`: the EC50 result is “inactive”.
On to `COC(=O)C1C(=O)c2c([nH]c(C(=O)OC3CCCCC3)c2C)CC1C` (stereo not given), for which the EC50 is > 67.5 µM (inactive).
On to `CN(C)c1ccc(N=Nc2nccs2)cc1`, for which the EC50 was > 67.4 µM (inactive).
Under `O=c1c2cc(-c3ccccc3)sc2nc2n1CCC2` stands > 67.5 µM (inactive); under `Clc1ccc(Nc2ccc3ccccc3n2)cc1`, > 67.5 µM (inactive); under `Brc1ccc(-c2noc(-c3ccccc3)n2)o1`, > 67.6 µM (inactive).
As to `COCCNC(=O)/C(C#N)=C/c1cc(C)n(C2CCCCC2)c1C`, the EC50 is > 67.5 µM (inactive).
As to `Cc1nnc(SCC(=O)Nc2nsc(-c3ccc(C(C)(C)C)cc3)n2)s1`, the EC50 is > 67.5 µM (inactive).
With `O=C(NNCc1ccccc1)c1ccccn1`, the EC50 is > 67.6 µM (inactive).
Consider `Cc1ccc(-n2ncc3ccccc3c2=O)cc1Cl`, for which the EC50 was > 67.6 µM (inactive).
The value for `CN(C)c1ccc2c(=O)c3ccccc3oc2n1` was > 67.6 µM (inactive); that for `COc1ccc(/C=C2\SC(=O)N(CCNC(=O)C3CC4C=CC3C4)C2=O)cc1` (stereo not given) was > 67.5 µM (inactive); that for `COc1ccc(Nc2nccc(-c3cccc(N)c3)n2)cc1` was > 67.5 µM (inactive).
Take `C=CCN1C=CC(=C/C=C(/C#N)C(=O)OCC)C=C1`: the EC50 was > 67.5 µM (inactive).
Under `Cc1cccc(N=Nc2cnc(N)s2)c1` stands > 67.6 µM (inactive); under `O=C(NC1CCC1)c1ccc(C#CC2CC2)cn1`, > 67.5 µM (inactive).
The value for `COCC1CCN(Cc2nc(-c3cccs3)no2)C1` (stereo not given) was > 67.5 µM (inactive).
Regarding `O=C(/C=C/c1ccccc1)N1CCC(c2ccccc2)C1` (stereo not given), the EC50 was > 67.5 µM (inactive).
Turning to `c1ccc(N=Nc2ccc(C3=NCCO3)cc2)cc1`, the EC50 is > 67.6 µM (inactive).
Under `COCCNc1nc(-c2cc3ccccc3o2)cs1` stands > 67.5 µM (inactive).
As for `Nc1c(-c2cccs2)cnc2c(-c3ccc(F)cc3)cnn12`, the EC50 is > 67.5 µM (inactive).
Regarding `Cn1c(O)c(N=NC(=O)c2ccco2)c2ccccc21`, the EC50 is > 67.5 µM (inactive).

Broadly, the EC50 is the concentration giving half of the maximal effect.
